Laboratory results as given in patent publication US10329310B2, “Arginase inhibitors and their therapeutic applications” (ONCOARENDI THERAPEUTICS S.A., priority 2014, dated 2019).
pIC50: −log10 of the molar value. Where a name gives a salt, the structure may show the parent alone.

Biological target: recombinant human arginases 1 and 2
Test: Human Arginase Activity Assay (urea measurement, colorimetric)
Format: biochemical
Details: 37° C., 60 min, isoform not given, read-out: Activity Class (IC50)
Procedure: Human Arginase Activity Assay
The assay was run in the 96-well plate format, each reaction in the total volume of 100 ul. The assay is based on urea measurement, which is a product of L-arginine enzymatic degradation. (Baggio et al. J. Pharmacol. Exp. Ther. 1999, 290, 1409-1416). The color product is developed by adding a mixture of reagent A (10 mM o-phthaldialdehyde and 0.4% polyoxyethylene (23) lauryl ether (w/v) in 1.8 M sulfuric acid) and reagent B (1.3 mM primaquine diphosphate, 0.4% polyoxyethylene (23) lauryl ether (w/v), and 130 mM boric acid in 3.6 M sulfuric acid) in equal proportions. The absorbance for each well was measured at 530 nm and was referred to the concentration curve determined using urea as a standard.
Briefly, to each well of a 96-well microtiter plate 40 μL of enzyme, 50 μL of the test compound solution, and 10 μL of enzyme substrate solution (L-arginine+manganese chloride) was added. For positive control, only the enzyme and substrate was added, the negative controls contained only manganese chloride. After incubating the microtiter plate at 37° C. for 60 min, 150 μL of a urea reagent was added to each well to stop the reaction. After quenching the reaction mixture, the plate was left for 20 min at room temperature in order to allow color development. Absorbance was measured with Envision® Reader (Perkin-Elmer) (λ=530 nm).
The IC50 values were calculated using GraphPad Prism and divided into the following classes: […]

SMILES	pIC50
NC(=O)NCC(N)(CCCCB(O)O)C(=O)O (stereo not drawn) [Example 3, 2-Amino-6-borono-2-(ureidomethyl)hexanoic acid hydrochloride]	4.00 to 5.00
CN(C)S(=O)(=O)NCC(N)(CCCCB(O)O)C(=O)O (stereo not drawn) [Example 4, 2-Amino-6-borono-2-(((N,N-dimethylsulfamoyl)amino)methyl)hexanoic acid hydrochloride]	6.00 to 7.00
NC(CCCCB(O)O)(CNS(=O)(=O)NCc1ccccc1)C(=O)O (stereo not drawn) [Example 5, hydrochloride]	5.00 to 6.00
CNS(=O)(=O)NCC(N)(CCCCB(O)O)C(=O)O (stereo not drawn) [Example 6, hydrochloride]	6.00 to 7.00
CNC(=N)NCC(N)(CCCCB(O)O)C(=O)O (stereo not drawn) [Example 7, 2-Amino-6-borono-2-((3-methylguanidino)methyl)hexanoic acid hydrochloride]	6.00 to 7.00
CNC(CCCCB(O)O)(CNS(N)(=O)=O)C(=O)O (stereo not drawn) [Example 8, 6-Borono-2-(methylamino)-2-((sulfamoylamino)methyl)hexanoic acid hydrochloride]	6.00 to 7.00
CNC(CCCCB(O)O)(CNC(=N)N)C(=O)O (stereo not drawn) [Example 9, 6-Borono-2-(guanidinomethyl)-2-(methylamino)hexanoic acid dihydrochloride]	7.00 to 9.00
NC(CCCCB(O)O)(CCS(N)(=O)=O)C(=O)O (stereo not drawn) [Example 10, 2-Amino-6-borono-2-(2-sulfamoylethyl)hexanoic acid hydrochloride]	5.00 to 6.00
NC(CCCCB(O)O)(CCNS(N)(=O)=O)C(=O)O (stereo not drawn) [Example 12, hydrochloride]	5.00 to 6.00
NC(CCCCB(O)O)(C(=O)O)C1CCN(S(N)(=O)=O)CC1 (stereo not drawn) [Example 14, 2-Amino-6-borono-2-(1-sulfamoylpiperidin-4-yl)hexanoic acid hydrochloride]	5.00 to 6.00
CN(C)S(=O)(=O)N1CCC(C(N)(CCCCB(O)O)C(=O)O)CC1 (stereo not drawn) [Example 15, 2-Amino-6-borono-2-(1-(N,N-dimethylsulfamoyl)piperidin-4-yl)hexanoic acid hydrochloride]	4.00 to 5.00
NC(CCCCB(O)O)(C(=O)O)C1CCN(S(=O)(=O)NCc2ccc(C(F)(F)F)cc2)CC1 (stereo not drawn) [Example 16, 2-Amino-6-borono-2-(1-(N-(4-(trifluoromethyl)benzyl)sulfamoyl)piperidin-4-yl)hexanoic acid hydrochloride]	5.00 to 6.00
